Results on twelve molecules are retold here after ChEMBL document CHEMBL1133053, “(S)-Thiirancarboxylic acid as a reactive building block for a new class of cysteine protease inhibitors” (Bioorg Med Chem Lett, 2000).

The structures appear in SMILES notation.

Experiment [1] addresses T1, Papain (Carica papaya) (UniProt P00784).
T1 sequence (whole entry): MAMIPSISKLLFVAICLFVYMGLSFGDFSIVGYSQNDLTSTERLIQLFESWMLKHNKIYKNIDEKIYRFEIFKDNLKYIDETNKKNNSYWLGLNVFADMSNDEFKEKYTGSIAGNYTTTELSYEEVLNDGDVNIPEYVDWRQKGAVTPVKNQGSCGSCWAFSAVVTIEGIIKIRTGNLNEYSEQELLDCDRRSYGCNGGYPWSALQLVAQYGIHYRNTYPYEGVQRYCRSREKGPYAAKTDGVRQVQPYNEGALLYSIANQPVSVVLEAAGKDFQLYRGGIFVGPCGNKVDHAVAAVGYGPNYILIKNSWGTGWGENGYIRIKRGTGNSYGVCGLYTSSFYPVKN
Put plainly: The second order rate constant of inactivation was reported.

Experiment [2] has as its target T1, Papain (Carica papaya). The experiment is described as follows: The first order rate constant of inactivation was reported.
In the next experiment the target is T2, Papain (Carica papaya, UniProt P00784).
T2 sequence (P00784 whole entry): T1 sequence (whole entry)
Put plainly: The compound was evaluated for inhibition of papain.

Experiment [3] concerns the target T1, Papain (Carica papaya). Put plainly: The second order rate constant of inactivation was reported at pH 4.

In the case of `CCOC(=O)[C@@H]1O[C@H]1C(=O)OCC`, at Papain (Carica papaya) [1], the K2 worked out at 1.68 M⁻¹ s⁻¹.
Still for that read-out and setting: as for `CCOC(=O)[C@@H]1N[C@H]1C(=O)O`, the figure is 58.8 M⁻¹ s⁻¹.
A word on the IC50: it is the concentration that inhibits the measured activity by half. As for `CCOC(=O)[C@H]1CS1`, at Papain (Carica papaya) [2], the K1 turned out to be 0.57 µM. On Papain, this molecule came in with an IC50 of 570 nM.
On Papain (Carica papaya) [1], `CCOC(=O)[C@H]1O[C@@H]1C(=O)OCC` registered a K2 of 1.73 M⁻¹ s⁻¹.
As to `CCOC(=O)[C@H]1N[C@@H]1C(=O)OCC`, the K2 on Papain (Carica papaya) [1] amounted to 0.183 M⁻¹ s⁻¹; at Papain (Carica papaya) [3], 1.02 M⁻¹ s⁻¹.
As for `CCOC(=O)C1OC1C(=O)OCC` (stereo unspecified), on Papain, the IC50 came out at 207 nM.
As to `CCOC(=O)[C@H]1N[C@@H]1C(=O)O`, the values for the K2 on Papain (Carica papaya) [1] and at Papain (Carica papaya) [3] were 78.2 M⁻¹ s⁻¹ and 413 M⁻¹ s⁻¹, respectively.
Consider `CCOC(=O)C1OC1C(=O)O` (stereo unspecified), for which the IC50 against Papain turned out to be 10.5 nM.
For the molecule `O=C(O)[C@@H]1CN1`, the K2 on Papain (Carica papaya) [1] turned out to be 17 M⁻¹ s⁻¹.
On to `O=C(O)[C@H]1CS1`, for which the K2 on Papain (Carica papaya) [1] was found to be 3.7 M⁻¹ s⁻¹.
On Papain (Carica papaya) [2], `COC(=O)[C@H]1CS1` came in with a K1 of 0.2 µM. At Papain, this molecule showed an IC50 of 200 nM.
Molecule `CCOC(=O)[C@@H]1N[C@H]1C(=O)OCC` gave a K2 on Papain (Carica papaya) [1] of 0.2 M⁻¹ s⁻¹.
